# Measured values from patent US9718813B2, “Imidazolin-5-one derivative useful as FASN inhibitors for the treatment of cancer” (Janssen Pharmaceutica, NV, priority 2013, dated 2017).
# Tests used:
# [1] = molecular target: FASN Keto-reductase Domain (hFASN enzyme, full length) (Homo sapiens (Human), UniProt P49327); assay: Fatty Acid Synthase Keto-reductase Domain (FASN KR) Inhibition; assay type: biochemical; conditions: NADPH oxidation at 340 nm, ethyl acetoacetate substrate; for IC50: read-out: FASN Keto-reductase Domain pIC50 (converted)
# Protocol: After 20 minutes incubation at room temperature the plate was measured again (T2).
# The decrease in absorbance was calculated as (Absorbance before incubation T1)−(Absorbance following incubation T2).
# (§1) Raw data generated by the instrument were normalized to % Controlmin values, which were calculated as: % Controlmin=100*(x−mLC)/(mHC−mLC)
# (§2) where mLC and mHC were the means of the low control wells and high control wells on the plate, after manual exclusion of outliers. A plot of Controlmin versus test compound concentration was fitted to a 4-parameter logistic curve using a non-linear least squares regression method.
# [2] = molecular target: hFASN enzyme (full length) (Homo sapiens (Human), UniProt P49327); assay: Fatty Acid Synthase (FASN) Inhibition Scintillation Proximity Assay; assay type: biochemical; conditions: 3H-acetyl-CoA and malonyl-CoA substrates, SPA, mean if tested more than once; for IC50: read-out: Human FASN pIC50 (converted)
# Protocol: In this assay, inhibition of FASN activity is measured using ^3H-acetyl-CoA and malonyl-CoA as substrates. ^3H-Acetyl CoA is converted to ^3H-palmitate through a series of reactions by the FASN protein, which contains 7 functional domains and carries out 7 enzymatic reactions to ultimately produce ^3H-palmitate. The assay principle is based upon the fact that ^3H-acetyl-CoA is hydrophilic and the end product, ^3H-palmitate is hydrophobic.
# 10 μL assay buffer (100 mM KH2PO4 pH 7.5, 1 mM DTT) (20 μL in blanks) was added to a 384-well white Opti Plate plate (Perkin Elmer). 0.9 μL test compound (at concentrations of 30 μM, 10 μM, 3 μM, 1 μM, 0.30 μM, 0.10 μM, 0.03 μM and 0.01 μM)/DMSO and 10 μL hFASN enzyme (full length, 300 ng, purified in house) or 10 μL assay buffer was added to the wells. […] The reaction was stopped by adding 20 μL Streptavidin coupled imaging beads (25 mg/ml). After incubation for 30 minutes at room temperature in the dark, the 384 well plate was centrifuged at 1500 rpm for 3 minutes and was measured after at least 24 hrs by the LEADseeker™, measuring emission using a 610±20 nm pass filter.
# as §1, §2
# FASN Keto-reductase Domain (hFASN enzyme, full length), sequence (P49327 whole entry, the tested form may be a part): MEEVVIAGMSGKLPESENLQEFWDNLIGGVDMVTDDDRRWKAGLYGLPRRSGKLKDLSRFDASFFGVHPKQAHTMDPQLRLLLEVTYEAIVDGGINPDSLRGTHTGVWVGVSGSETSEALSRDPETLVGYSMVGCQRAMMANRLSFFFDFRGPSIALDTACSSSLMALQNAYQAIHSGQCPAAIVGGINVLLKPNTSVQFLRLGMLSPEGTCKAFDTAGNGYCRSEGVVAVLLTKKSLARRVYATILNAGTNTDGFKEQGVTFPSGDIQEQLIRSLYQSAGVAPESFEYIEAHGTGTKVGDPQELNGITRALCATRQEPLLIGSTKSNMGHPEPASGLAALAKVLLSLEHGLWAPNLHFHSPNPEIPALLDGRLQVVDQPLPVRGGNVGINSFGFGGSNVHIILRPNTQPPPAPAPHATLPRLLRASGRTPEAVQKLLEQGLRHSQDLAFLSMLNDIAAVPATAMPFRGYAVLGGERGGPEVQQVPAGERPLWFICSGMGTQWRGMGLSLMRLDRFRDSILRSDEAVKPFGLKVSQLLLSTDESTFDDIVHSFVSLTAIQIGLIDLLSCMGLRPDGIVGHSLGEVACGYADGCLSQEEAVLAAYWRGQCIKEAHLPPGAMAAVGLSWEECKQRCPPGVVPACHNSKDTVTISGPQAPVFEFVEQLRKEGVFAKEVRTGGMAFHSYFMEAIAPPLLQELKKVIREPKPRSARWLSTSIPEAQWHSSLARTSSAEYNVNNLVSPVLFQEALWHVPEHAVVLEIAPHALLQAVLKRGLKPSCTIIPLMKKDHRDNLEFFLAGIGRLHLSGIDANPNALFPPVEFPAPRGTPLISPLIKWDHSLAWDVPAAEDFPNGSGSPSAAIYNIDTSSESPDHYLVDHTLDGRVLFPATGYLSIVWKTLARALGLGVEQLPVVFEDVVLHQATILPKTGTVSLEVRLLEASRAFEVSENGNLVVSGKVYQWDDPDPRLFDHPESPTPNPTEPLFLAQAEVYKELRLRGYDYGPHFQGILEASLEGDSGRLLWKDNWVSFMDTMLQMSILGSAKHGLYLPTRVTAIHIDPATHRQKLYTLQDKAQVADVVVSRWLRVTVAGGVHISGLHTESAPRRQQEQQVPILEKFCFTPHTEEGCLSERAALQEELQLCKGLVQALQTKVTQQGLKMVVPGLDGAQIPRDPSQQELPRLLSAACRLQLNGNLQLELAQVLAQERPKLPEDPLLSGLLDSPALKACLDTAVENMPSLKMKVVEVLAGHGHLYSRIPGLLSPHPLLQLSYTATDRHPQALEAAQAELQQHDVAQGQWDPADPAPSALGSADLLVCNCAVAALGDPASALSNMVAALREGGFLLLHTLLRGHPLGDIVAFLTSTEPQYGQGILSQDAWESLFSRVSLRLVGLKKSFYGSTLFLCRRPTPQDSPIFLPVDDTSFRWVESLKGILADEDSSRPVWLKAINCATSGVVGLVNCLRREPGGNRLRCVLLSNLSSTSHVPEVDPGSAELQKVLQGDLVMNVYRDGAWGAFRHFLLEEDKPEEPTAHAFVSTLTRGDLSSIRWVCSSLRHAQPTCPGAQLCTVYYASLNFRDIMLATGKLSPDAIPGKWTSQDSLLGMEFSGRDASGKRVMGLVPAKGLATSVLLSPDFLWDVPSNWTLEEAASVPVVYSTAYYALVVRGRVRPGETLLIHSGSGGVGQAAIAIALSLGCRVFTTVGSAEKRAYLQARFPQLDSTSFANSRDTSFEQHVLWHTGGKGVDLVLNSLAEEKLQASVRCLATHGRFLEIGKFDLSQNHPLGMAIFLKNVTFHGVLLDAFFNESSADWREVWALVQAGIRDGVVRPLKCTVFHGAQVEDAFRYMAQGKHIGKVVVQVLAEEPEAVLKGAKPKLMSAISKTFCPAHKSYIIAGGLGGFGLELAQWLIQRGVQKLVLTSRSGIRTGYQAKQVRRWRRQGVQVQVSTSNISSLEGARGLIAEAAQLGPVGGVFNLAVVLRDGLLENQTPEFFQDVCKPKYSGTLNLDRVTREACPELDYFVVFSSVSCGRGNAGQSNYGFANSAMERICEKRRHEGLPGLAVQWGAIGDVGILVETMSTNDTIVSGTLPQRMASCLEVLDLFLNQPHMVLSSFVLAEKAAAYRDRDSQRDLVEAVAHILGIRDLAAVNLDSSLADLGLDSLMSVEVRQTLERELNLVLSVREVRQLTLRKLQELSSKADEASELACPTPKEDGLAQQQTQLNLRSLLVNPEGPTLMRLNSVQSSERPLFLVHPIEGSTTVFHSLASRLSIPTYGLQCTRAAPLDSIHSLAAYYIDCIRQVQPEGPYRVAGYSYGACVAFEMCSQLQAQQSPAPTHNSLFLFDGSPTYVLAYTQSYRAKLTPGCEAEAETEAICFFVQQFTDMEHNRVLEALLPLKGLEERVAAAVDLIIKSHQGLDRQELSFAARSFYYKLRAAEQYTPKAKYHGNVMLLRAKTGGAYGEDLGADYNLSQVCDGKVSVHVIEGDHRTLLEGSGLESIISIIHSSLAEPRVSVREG
# hFASN enzyme (full length), sequence (P49327 whole entry, the tested form may be a part): as above
Structure (SMILES),IC50 [1],IC50 [2],FASN Keto-reductase Domain pIC50 [1],Human FASN pIC50 [2]
"CC1(c2ccccc2)N=C(c2ccc(-c3ccc4occc4c3)cc2)N(C[C@@H]2CCN(C(=O)C3CC3)C2)C1=O (mixture of isomers) [Compound 5, (4RS)-2-(4-(Benzofuran-5-yl)phenyl)-1-(((R)-1-(cyclopropanecarbonyl)pyrrolidin-3-yl)methyl)-4-methyl-4-phenyl-1H-imidazol-5(4H)-one]",537 nM,155 nM,,
"CC1(c2ccccc2)N=C(c2ccc(-c3ccc4[nH]ccc4c3)cc2)N(C[C@@H]2CCN(C(=O)C3CC3)C2)C1=O (mixture of isomers) [Compound 7, (4RS)-2-(4-(1H-Indol-5-yl)phenyl)-1-(((R)-1-(cyclopropanecarbonyl)pyrrolidin-3-yl)methyl)-4-methyl-4-phenyl-1H-imidazol-5(4H)-one]",129 nM,72.4 nM,,
"COCC1(C)N=C(c2ccc(-c3ccc4occc4c3)cc2)N(C[C@@H]2CCN(C(=O)C3CC3)C2)C1=O (mixture of isomers) [Compound 8, (4RS)-2-(4-(Benzofuran-5-yl)phenyl)-1-(((R)-1-(cyclopropanecarbonyl)pyrrolidin-3-yl)methyl)-4-(methoxymethyl)-4-methyl-1H-imidazol-5(4H)-one]",389 nM,240 nM,,
"CC1(C2CC2)N=C(c2ccc(-c3ccc4occc4c3)cc2)N(C[C@@H]2CCN(C(=O)C3CC3)C2)C1=O (mixture of isomers) [Compound 9, (4RS)-2-(4-(Benzofuran-5-yl)phenyl)-1-(((R)-1-(cyclopropanecarbonyl)pyrrolidin-3-yl)methyl)-4-cyclopropyl-4-methyl-1H-imidazol-5(4H)-one]",603 nM,331 nM,,
"CC1(C)N=C(c2ccc(-c3ccc4[nH]ccc4c3)cc2)N(C[C@@H]2CCN(C(=O)C3CC3)C2)C1=O [Compound 1, (R)-2-(4-(1H-Indol-5-yl)phenyl)-1-((1-(cyclopropanecarbonyl)pyrrolidin-3-yl)methyl)-4,4-dimethyl-1H-imidazol-5(4H)-one]",,,6.86,7.32
"Cn1ncc2cc(-c3ccc(C4=NC(C)(C)C(=O)N4C[C@@H]4CCN(C(=O)C5CC5)C4)cc3)ccc21 [Compound 2, (R)-1-((1-(cyclopropanecarbonyl)pyrrolidin-3-yl)methyl)-4,4-dimethyl-2-(4-(1-methyl-1H-indazol-5-yl)phenyl)-1H-imidazol-5(4H)-one]",,,6.15,6.85
"CC1(C)N=C(c2ccc(-c3ccc4occc4c3)cc2)N(C[C@@H]2CCN(C(=O)C3CC3)C2)C1=O [Compound 3, (R)-2-(4-(benzofuran-5-yl)phenyl)-1-((1-(cyclopropanecarbonyl)pyrrolidin-3-yl)methyl)-4,4-dimethyl-1H-imidazol-5(4H)-one]",,,6.33,7.09
"CC1(C)N=C(c2ccc(-c3ccc4occc4c3)cc2)N(C[C@@H]2CCN(C(=O)C3(F)CC3)C2)C1=O [Compound 4, (R)-2-(4-(benzofuran-5-yl)phenyl)-1-((1-(1-fluorocyclopropanecarbonyl)pyrrolidin-3-yl)methyl)-4,4-dimethyl-1H-imidazol-5(4H)-one]",,,6.22,6.92
"CC1(C)N=C(c2ccc(-c3nc4ccccc4o3)cc2)N(C[C@@H]2CCN(C(=O)C3CC3)C2)C1=O [Compound 11, (R)-2-(4-(benzo[d]oxazol-2-yl)phenyl)-1-((1-(cyclopropanecarbonyl)pyrrolidin-3-yl)methyl)-4,4-dimethyl-1H-imidazol-5(4H)-one]",,,5.41,6.20
"CC1(C)N=C(c2ccc(-c3ccc(-c4ccncc4)cc3)cc2)N(C[C@@H]2CCN(C(=O)C3CC3)C2)C1=O [Compound 15, (R)-1-((1-(cyclopropanecarbonyl)pyrrolidin-3-yl)methyl)-4,4-dimethyl-2-(4′-(pyridin-4-yl)-[1,1′-biphenyl]-4-yl)-1H-imidazol-5(4H)-one]",,,6.75,7.40
"Cn1cc(-c2ccc(-c3ccc(C4=NC(C)(C)C(=O)N4C[C@@H]4CCN(C(=O)C5CC5)C4)cc3)cc2)cn1 [Compound 16, (R)-1-((1-(cyclopropanecarbonyl)pyrrolidin-3-yl)methyl)-4,4-dimethyl-2-(4′-(1-methyl-1H-pyrazol-4-yl)-[1,1′-biphenyl]-4-yl)-1H-imidazol-5(4H)-one]",,,6.20,6.99
"Cn1cc(-c2ccc(-c3ccc(C4=NC(C)(C)C(=O)N4CC4CN(C(=O)C5CC5)C4)cc3)cc2)cn1 [Compound 17, 1-((1-(cyclopropanecarbonyl)azetidin-3-yl)methyl)-4,4-dimethyl-2-(4′-(1-methyl-1H-pyrazol-4-yl)-[1,1′-biphenyl]-4-yl)-1H-imidazol-5(4H)-one]",,,5.57,6.26
"CC1(C)N=C(c2ccc(-c3ccc(-c4ccncc4)cc3)cc2F)N(CC2CN(C(=O)C3CC3)C2)C1=O [Compound 22, 1-((1-(cyclopropanecarbonyl)azetidin-3-yl)methyl)-2-(3-fluoro-4′-(pyridin-4-yl)-[1,1′-biphenyl]-4-yl)-4,4-dimethyl-1H-imidazol-5(4H)-one]",,,6.57,6.80
"CC1(C)N=C(c2ccc(-c3ccc4cccnc4c3)cc2)N(C[C@@H]2CCN(C(=O)C3CC3)C2)C1=O [Compound 23, (R)-1-((1-(cyclopropanecarbonyl)pyrrolidin-3-yl)methyl)-4,4-dimethyl-2-(4-(quinolin-7-yl)phenyl)-1H-imidazol-5(4H)-one]",,,7.25,7.25
"CC1(C)N=C(c2ccc(-c3ccc4cccnc4c3)cc2)N(CC2CN(C(=O)C3CC3)C2)C1=O [Compound 24, 1-((1-(cyclopropanecarbonyl)azetidin-3-yl)methyl)-4,4-dimethyl-2-(4-(quinolin-7-yl)phenyl)-1H-imidazol-5(4H)-one]",,,6.45,6.69
"CC1(C)N=C(c2ccc(-c3cnc4ccccc4c3)cc2)N(C[C@@H]2CCN(C(=O)C3CC3)C2)C1=O [Compound 25, (R)-1-((1-(cyclopropanecarbonyl)pyrrolidin-3-yl)methyl)-4,4-dimethyl-2-(4-(quinolin-3-yl)phenyl)-1H-imidazol-5(4H)-one]",,,6.17,6.15
"Cn1cnc2cc(-c3ccc(C4=NC(C)(C)C(=O)N4CC4CN(C(=O)C5(O)CC5)C4)c(F)c3)ccc21 [Compound 94, 2-(2-fluoro-4-(1-methyl-1H-benzo[d]imidazol-5-yl)phenyl)-1-((1-(1-hydroxycyclopropanecarbonyl)azetidin-3-yl)methyl)-4,4-dimethyl-1H-imidazol-5(4H)-one]",,,,6.49
"Cn1cc(-c2ccc(-c3ccc(C4=NC(C)(C)C(=O)N4C[C@@H]4CCN(C(=O)C5(O)CC5)C4)c(F)c3)cc2)cn1 [Compound 95, (R)-2-(3-fluoro-4′-(1-methyl-1H-pyrazol-4-yl)-[1,1′-biphenyl]-4-yl)-1-((1-(1-hydroxycyclopropanecarbonyl)pyrrolidin-3-yl)methyl)-4,4-dimethyl-1H-imidazol-5(4H)-one]",,,,7.52
"Cc1cc(-c2ccc3cc(C#N)ccc3c2)ccc1C1=NC(C)(C)C(=O)N1CC1CN(C(=O)C2CC2)C1 [Compound 96, 6-(4-(1-((1-(cyclopropanecarbonyl)azetidin-3-yl)methyl)-4,4-dimethyl-5-oxo-4,5-dihydro-1H-imidazol-2-yl)-3-methylphenyl)-2-naphthonitrile]",,,,7.39
"CC1(C)N=C(c2ccc(-c3ccc4ncccc4c3)cc2)N(CC2CN(C(=O)C3CC3)C2)C1=O [Compound 98, 1-((1-(cyclopropanecarbonyl)azetidin-3-yl)methyl)-4,4-dimethyl-2-(4-(quinolin-6-yl)phenyl)-1H-imidazol-5(4H)-one]",,> 10000 nM,,
"CC1(C)N=C(c2ccc(-c3n[nH]c4ccccc34)cc2)N(CC2CN(C(=O)C3CC3)C2)C1=O [Compound 99, 2-(4-(1H-indazol-3-yl)phenyl)-1-((1-(cyclopropanecarbonyl)azetidin-3-yl)methyl)-4,4-dimethyl-1H-imidazol-5(4H)-one]",,,,5.26
